# Measurements taken from paper PMC5620609 (Pharmaceuticals, 2017).
# Where two headings read alike, the source gives them in different places.
# Experiments:
# UO-31 = assay: NCI 60 cell line panel: UO-31; assay type: cell-based, human; conditions: Renal cancer, TP53 wild type
# Text: (§1) Details of the NCI 60 One Dose Screen are well known and available online.
# OVCAR-4 = assay: NCI 60 cell line panel: OVCAR-4; assay type: cell-based, human; conditions: Ovarian cancer, TP53 null/mutant
# Text: as §1
# HCC-2998 = assay: NCI 60 cell line panel: HCC-2998; assay type: cell-based, human; conditions: Colon cancer, TP53 null/mutant
# Text: as §1
# OVCAR-5 = assay: NCI 60 cell line panel: OVCAR-5; assay type: cell-based, human; conditions: Ovarian cancer, TP53 wild type
# Text: as §1
# SNB-19 = assay: NCI 60 cell line panel: SNB-19; assay type: cell-based, human; conditions: CNS cancer, TP53 null/mutant
# Text: as §1
# NCI-H322M = assay: NCI 60 cell line panel: NCI-H322M; assay type: cell-based, human; conditions: NSCL, TP53 null/mutant
# Text: as §1
# SK-OV-3 = assay: NCI 60 cell line panel: SK-OV-3; assay type: cell-based, human; conditions: Ovarian cancer, TP53 null/mutant
# Text: as §1
# EKVX = assay: NCI 60 cell line panel: EKVX; assay type: cell-based, human; conditions: NSCL, TP53 null/mutant
# Text: as §1
# CCRF-CEM = assay: NCI 60 cell line panel: CCRF-CEM; assay type: cell-based, human; conditions: Leukemia, TP53 null/mutant
# Text: as §1
# NCI-H23 = assay: NCI 60 cell line panel: NCI-H23; assay type: cell-based, human; conditions: NSCL, TP53 null/mutant
# Text: as §1
# SK-MEL-5 = assay: NCI 60 cell line panel: SK-MEL-5; assay type: cell-based, human; conditions: Melanoma, TP53 wild type
# Text: as §1
# HL-60 = assay: NCI 60 cell line panel: HL-60; assay type: cell-based, human; conditions: Leukemia, TP53 null/mutant
# Text: as §1
# LOX IMVI = assay: NCI 60 cell line panel: LOX IMVI; assay type: cell-based, human; conditions: Melanoma, TP53 wild type
# Text: as §1
# [1] = Hydrolysis of the 5-azacytosine base; assay type: physicochemical; conditions: data not shown
# HT29 = assay: NCI 60 cell line panel: HT29; assay type: cell-based, human; conditions: Colon cancer, TP53 null/mutant
# Text: as §1
# SW-620 = assay: NCI 60 cell line panel: SW-620; assay type: cell-based, human; conditions: Colon cancer, TP53 null/mutant
# Text: as §1
# [2] = system: LoVo colon cancer (TP53 WT) xenograft; assay type: in vivo
# Description: (§2) Drugs were administered IV for 3 consecutive days a week for 3 weeks. HL-60 is a human leukemia cell line (TP53 null) that is part of the NCI 60 cell line panel and can be grown in nude mice.
# (§3) First, 10^7 tumor cells from culture in Matrigel™ of HL-60 human leukemia or LoVo colon cancer were implanted subcutaneously in the flank of 1.75-fold the number of NCr-nu/nu mice required for the study. Study initiation began when the required number of mice had tumors of approximately: • 100 to 250 mm^3 (target group mean tumor volume of approximately 175 mm^3) for the first set of studies. • 14 to 63 mm^3 (target group mean tumor weight of approximately 30 mm^3) for the second set of studies.
# (§4) Mice with tumors in the proper volume range were arbitrarily assigned to groups. Mice received test article on 3 consecutive days per week for 3 weeks. Mice were observed daily for mortality and moribundity with weights and the tumor measurements taken twice weekly. Tumor volume was determined using the formula for an ellipsoid sphere: Length × Width^2/2 = Volume (mm^3). The experiments were scheduled to last for 60 days from the day of tumor implant. Any animal whose weight decreased more than 30% from the weight on the first day of treatment or whose tumor reached 4000 mm^3 in volume, ulcerated or sloughed off, or was moribund was euthanized prior to study termination.
# [3] = system: HL-60 human leukemia (TP53 null) xenograft; assay type: in vivo
# Description: as §2, §3, §4
# A549/ATCC = assay: NCI 60 cell line panel: A549/ATCC; assay type: cell-based, human; conditions: NSCL, TP53 wild type
# Text: as §1
# OVCAR-8 = assay: NCI 60 cell line panel: OVCAR-8; assay type: cell-based, human; conditions: Ovarian cancer, TP53 null/mutant
# Text: as §1
# NCI 60 cell line panel = assay: NCI 60 cell line panel, allocation of cell lines by growth inhibition at 10 µM; assay type: cell-based, human
# Text: as §1
# ACHN = assay: NCI 60 cell line panel: ACHN; assay type: cell-based, human; conditions: Renal cancer, TP53 wild type
# Text: as §1
# SN12C = assay: NCI 60 cell line panel: SN12C; assay type: cell-based, human; conditions: Renal cancer, TP53 null/mutant
# Text: as §1
# KM12 = assay: NCI 60 cell line panel: KM12; assay type: cell-based, human; conditions: Colon cancer, TP53 null/mutant
# Text: as §1
# [4] = Pharmacokinetic study, IV in mice; assay type: in vivo; conditions: 10 mg/kg; for half-life: iv
# Description: Blood aliquots (300–400 µL) were collected via cardiac puncture from anesthetized mice in anticoagulant coated tubes, then kept on ice and centrifuged at 2500× g for 15 min at 4 °C. The plasma was harvested and kept frozen at −80 °C. Plasma samples were processed using acetonitrile precipitation and analyzed by HPLC-MS/MS. A plasma calibration curve was generated and a reportable linear range determined, along with the lower limit of quantitation.
# MOLT-4 = assay: NCI 60 cell line panel: MOLT-4; assay type: cell-based, human; conditions: Leukemia, TP53 null/mutant
# Text: as §1
# M14 = assay: NCI 60 cell line panel: M14; assay type: cell-based, human; conditions: Melanoma, TP53 null/mutant
# Text: as §1
# HS 578T = assay: NCI 60 cell line panel: HS 578T; assay type: cell-based, human; conditions: Breast cancer, TP53 null/mutant
# Text: as §1
# in vivo = conditions: nude, mouse, iv
# Description: Three mice were placed in a dose group on the first day of treatment (Day 1). […] Animals were observed daily for mortality and moribundity. Body weights were measured daily starting on day 1.
# SF-268 = assay: NCI 60 cell line panel: SF-268; assay type: cell-based, human; conditions: CNS cancer, TP53 null/mutant
# Text: as §1
# IGROV-1 = assay: NCI 60 cell line panel: IGROV-1; assay type: cell-based, human; conditions: Ovarian cancer, TP53 null/mutant
# Text: as §1
# PC-3 = assay: NCI 60 cell line panel: PC-3; assay type: cell-based, human; conditions: Prostate cancer, TP53 null/mutant
# Text: as §1
# [5] = 55 cell lines tested for both compounds
compound,measurement,setting,value
"Nc1ncn([C@@H]2O[C@H](CO)[C@@H](O)C2(F)F)c(=O)n1 [NUC013, 5-aza-2′,2′-difluroro deoxycytidine]",Growth (%) at 10 µM,UO-31,39.00%
same,Growth (%) at 10 µM,OVCAR-4,94.88%
same,Growth (%) at 10 µM,HCC-2998,60.44%
same,Growth (%) at 10 µM,OVCAR-5,86.95%
same,Growth (%) at 10 µM,SNB-19,58.88%
same,Growth (%) at 10 µM,NCI-H322M,70.00%
same,Growth (%) at 10 µM,SK-OV-3,71.09%
same,Growth (%) at 10 µM,EKVX,86.06%
same,Growth (%) at 10 µM,CCRF-CEM,23.67%
same,Growth (%) at 10 µM,NCI-H23,30.61%
same,Growth (%) at 10 µM,SK-MEL-5,70.84%
same,Growth (%) at 10 µM,HL-60,25.23%
same,Growth (%) at 10 µM,LOX IMVI,34.53%
same,hydrolysis at the 6-position of the cytosine ring,[1],susceptible to hydrolysis
same,Growth (%) at 10 µM,HT29,70.09%
same,Growth (%) at 10 µM,SW-620,51.21%
same,median survival (MS),"[2]; LoVo first study, NUC013 5.8 mg/kg IV",60 days
same,mean tumor volume lower compared to controls,"[2]; LoVo first study, NUC013 equimolar dose (5.8 mg/kg) IV, study day 27",24.3%
same,median survival (MS),"[2]; LoVo second study, NUC013 20 mg/kg IV",undefined
same,mean tumor volume lower compared to controls,"[2]; LoVo second study, NUC013 20 mg/kg IV, study day 30",50.9%
same,median survival (MS),"[2]; LoVo second study, NUC013 40 mg/kg IV",undefined
same,mean tumor volume lower compared to controls,"[2]; LoVo second study, NUC013 40 mg/kg IV, study day 30",53.7%
same,median survival (MS),"[3]; HL-60 first study, NUC013 5.8 mg/kg IV, saline MS = 25 days",28.5 days
same,mice died or euthanized for moribundity (out of 10),"[3]; HL-60 first study, NUC013 equimolar dose (5.8 mg/kg) IV",none
same,median survival (MS),"[3]; HL-60 second study, NUC013 20 mg/kg IV, saline MS = 26.5 days",32 days
same,tumor volume lower than saline control (maximum),"[3]; HL-60 second study, NUC013 20 mg/kg IV, study days 21 and 25",47.8%
same,Growth (%) at 10 µM,A549/ATCC,37.91%
same,Growth (%) at 10 µM,OVCAR-8,49.95%
same,Number of cell lines with growth inhibition at 10 µM >50%,NCI 60 cell line panel; [5],24
same,Number of cell lines with growth inhibition at 10 µM ≤50%,NCI 60 cell line panel; [5],31
same,Number of cell lines with growth inhibition at 10 µM >50%,NCI 60 cell line panel; TP53 (Null/Mutant) cell lines,13
same,Number of cell lines with growth inhibition at 10 µM ≤50%,NCI 60 cell line panel; TP53 (Null/Mutant) cell lines,27
same,Number of cell lines with growth inhibition at 10 µM >50%,NCI 60 cell line panel; TP53 (WT) cell lines,11
same,Number of cell lines with growth inhibition at 10 µM ≤50%,NCI 60 cell line panel; TP53 (WT) cell lines,4
same,Growth (%) at 10 µM,ACHN,7.28%
same,Growth (%) at 10 µM,SN12C,51.65%
same,Growth (%) at 10 µM,KM12,61.18%
same,identification in plasma at the 6 and 24 h timepoints,"[4]; mice, IV",could not be identified
same,half-life,"[4]; mouse, plasma, mice, intravenous injection, read-out: half-life",20.1 min
same,half-life,"[4]; mouse, plasma, mouse, IV, plasma, non-compartmental, read-out: t1/2 (converted)",20.1 min
same,AUC Extr,"[4]; mouse, IV, plasma",0.04%
same,AUC(0-inf),"[4]; mouse, IV, plasma",11.1 µg·h/mL
same,AUC(0-t),"[4]; mouse, IV, plasma",11.1 µg·h/mL
same,C0,"[4]; mouse, IV, plasma",36.9 µg/mL
same,Last time point for AUClast,"[4]; mouse, IV, plasma",4 h
same,MRT,"[4]; mouse, IV, plasma",17.5 min
same,Vd,"[4]; mouse, IV, plasma, read-out: Vss",0.26 L/kg
same,Growth (%) at 10 µM,MOLT-4,35.63%
same,Growth (%) at 10 µM,M14,15.55%
same,Growth (%) at 10 µM,HS 578T,90.37%
same,MTD at 3 weeks,in vivo,> 120 mg/kg
same,Growth (%) at 10 µM,SF-268,65.39%
same,Growth (%) at 10 µM,IGROV-1,56.77%
same,Growth (%) at 10 µM,PC-3,63.57%
